According to article PMC5989765, “The safety, tolerability, and pharmacokinetic profile of GSK2838232, a novel 2nd generation HIV maturation inhibitor, as assessed in healthy subjects” (Pharmacology Research & Perspectives, 2018):
Entries after “also recorded” stand apart in the source; their conditions may differ. Read-outs that look alike come from different tables or passages of the source.

Legend:
Format in all cases: in vivo, human
[1] = Study HMI116787: single ascending dose, food effect and RTV boosting, SDD PiB, healthy subjects; conditions: for Cmax / Tmax / concentration at 24 h / AUC / half-life: human, plasma, oral; for Cmax / Tmax / concentration at 24 h / AUC / half-life / CL/F: fasted; for Cmax / AUC / half-life / CL/F: geometric mean (95% CI); for Tmax / concentration at 24 h: median (range); for concentration at 24 h: read-out: C24; for AUC: read-out: AUC(0‐∞); for half-life: read-out: t½ (converted)
Protocol: This study was a first‐in‐human, double‐blind, randomized, placebo‐controlled, single dose escalation study of GSK2838232 in healthy subjects conducted in two sequential cohorts with four dosing visits in each cohort. At each visit in each cohort, 6 out of the 8 subjects were randomized to receive the active dose, and 2 out of the 8 subjects were randomized to placebo. Cohort 1 tested escalating doses of 5, 10, and 20 mg GSK2838232 as a Spray Dried Dispersion (SDD) delivered as a powder‐in‐bottle (PiB) suspension; Cohort 2 tested the same formulation at doses of 50 and 100 mg, the effect of a high‐fat breakfast on a 50 mg dose, and the impact of steady‐state dosing of 100 mg once‐daily (QD) RTV on the PK of a single 10 mg dose of GSK2838232 (administered on Day 10 of the 12 days of RTV dosing). All doses were administered in a fasted state, except in the food effect portion of the study.
(§1) Blood samples were taken via an indwelling cannula or by direct venipuncture, collected into a di‐potassium ethylenediaminetetraacetic acid (K2 EDTA) tube, and placed on wet ice. Samples were centrifuged at approximately 1500g for 10 minutes at approximately 4°C. Exactly 500 μL of the resulting plasma was transferred into labeled 1.4 mL Matrix TrakMate Tubes containing exactly 500 μL of 50 mmol/L citrate buffer, pH 4.0, and mixed well. When 500 μL of plasma was not able to be transferred, the ratio of plasma to citrate buffer was kept at 1:1. Buffered plasma samples were kept on ice and frozen at −70°C within 1 hour of collection. Plasma samples were analyzed for GSK2838232 using a validated analytical method based on protein precipitation, followed by high performance liquid chromatography with tandem mass spectrometry (HPLC/MS/MS) analysis.
(§2) Extracts were analyzed using HPLC (Shimadzu, Nexera, 30 series) and tandem mass spectrometry detection (HPLC‐MS/MS). The mass spectrometer used was an API‐5500 using IonSpray interface (500 V) in positive mode monitoring. The mass transitions were 809.5 to 255.1 and 816.5 to 262.1 for GSK2838232 and [2H7] GSK2838232 (the isotopically labeled internal standard), respectively. The chromatographic conditions utilized a Waters Acquity UPLC BEH C18 column (50 × 2.1 mm, 1.7 μm) with mobile phases consisting of 1 mmol/L ammonium formate:formic acid (100:0.005) (mobile phase A) and acetonitrile:formic acid (100:0.1) (mobile phase B) at a flow rate of 0.6 mL/min, with pump B at 63% held for 2 minutes. The assay was validated to have precision (%RSD) of 0.7%‐6.5% (within‐run) and 1.0%‐5.9% RSD (between‐run) and with accuracy (%bias) of 0.0%‐1.6%. […] The lower limit of quantification (LLQ) was 0.5 ng/mL, using a 50 μL aliquot of K2EDTA acidified plasma. The higher limit of quantification (HLQ) was 500 ng/mL.
(§3) The PK parameters were calculated by standard noncompartmental analysis based on actual sampling times using WinNonlin Version 6.3 or higher. Estimation of AUC used the linear up/log down trapezoidal rule.

[2] = Safety and tolerability in healthy subjects across the four Phase I studies
Protocol: Each one of the four studies described were conducted and completed at a single center in the United States (Parexel International, Baltimore, MD) per the ethical principles of “good clinical practice” (GCP) and the Declaration of Helsinki after obtaining a written informed consent from each subject. The protocols and amendments were approved by Aspire Investigational Review Board (Santee, California, USA).
Other screening assessments included 24‐hour Holter monitoring and baseline echocardiograms.
Nonclinical evaluation in short duration toxicology studies initially gave rise to potential cardiovascular signals which were minimal, appeared sporadically, and were not reproduced in longer term studies. Consequently, there was intensive and extensive cardiovascular monitoring at baseline and post‐dosing, including continuous Holter monitoring and regular cardiac troponin laboratory assessments in these early Phase I studies along with a high degree of vigilance for any findings and/or reported AEs of potential cardiovascular origin.

[3] = Pharmacokinetics in healthy subjects, statements across the Phase I studies; conditions: for half-life: human, plasma, oral
Protocol: as §1, §2, §3

[4] = 50 mg Fed (high, 60% fat meal) versus 50 mg fasted, SDD PiB formulation, Study HMI116787
[5] = RTV for 10 days prior to 10 mg SDD, Study 116787
[6] = single 5 mg SDD PiB, without ritonavir, Study HMI116787
[7] = single 10 mg SDD PiB, with ritonavir 100 mg QD (Day 10 of 12), Study HMI116787
[8] = single 10 mg SDD PiB, without ritonavir, Study HMI116787
[9] = single 20 mg SDD PiB, without ritonavir, Study HMI116787
[10] = single 50 mg SDD PiB, without ritonavir, Study HMI116787
[11] = single 100 mg SDD PiB, without ritonavir, Study HMI116787

SMILES: CC(C)C1=C2[C@H]3CC[C@@H]4[C@@]5(C)CC[C@H](OC(=O)CC(C)(C)C(=O)O)C(C)(C)[C@@H]5CC[C@@]4(C)[C@]3(C)CC[C@@]2([C@@H](O)CN(CCN(C)C)Cc2ccc(Cl)cc2)CC1=O [GSK2838232]
- Geometric least square mean ratio [90% CI], AUC(0‐∞) [1, 4]: 1.61 (1.266, 2.053)
- Geometric least square mean ratio [90% CI], C max [1, 4]: 1.60 (0.995, 2.566)
- change in t½ with RTV [1, 5]: approximately doubled
- increase in 24‐h concentration (C24) with RTV [1, 5]: ~6.4 fold
- increase in AUC(0‐t) with RTV [1, 5]: approximately 10 fold
- increase in C max with RTV [1, 5]: ~3 fold
- bioavailability after meal relative to the fasted state ([1]; SDD PiB formulation, high‐fat (60%) meal, Study HMI116787): approximately 1.6 fold
- Cmax [1, 6]: 1.52 ng/mL
- Tmax [1, 6]: 2.24 h
- concentration at 24 h [1, 6]: 0 ng/mL
- Cmax [1, 7]: 9.1 ng/mL
- AUC [1, 7]: 389 ng·h/mL
- half-life [1, 7]: 33.7 h
- Tmax [1, 7]: 4 h
- concentration at 24 h [1, 7]: 4.64 ng/mL
- Cmax [1, 8]: 3.49 ng/mL
- Tmax [1, 8]: 1.76 h
- concentration at 24 h [1, 8]: 0.63 ng/mL
- Cmax [1, 9]: 8.09 ng/mL
- AUC [1, 9]: 104 ng·h/mL
- half-life [1, 9]: 14.1 h
- Tmax [1, 9]: 1.75 h
- concentration at 24 h [1, 9]: 1.54 ng/mL
- Cmax [1, 10]: 13.1 ng/mL
- AUC [1, 10]: 195 ng·h/mL
- half-life [1, 10]: 17.4 h
- Tmax [1, 10]: 2.02 h
- concentration at 24 h [1, 10]: 3.11 ng/mL
- Cmax [1, 11]: 23.7 ng/mL
- AUC [1, 11]: 385 ng·h/mL
- half-life [1, 11]: 18.8 h
- Tmax [1, 11]: 2.75 h
- concentration at 24 h [1, 11]: 5.93 ng/mL
- CL/F [1, 7]: 25.7 (18.8, 35.1) L/h
- CL/F [1, 9]: 193 (147, 254) L/h
- CL/F [1, 10]: 256 (203, 324) L/h
- CL/F [1, 11]: 260 (202, 335) L/h
- increase in C max by RTV ([1]; single dose after steady‐state predosing with RTV 100 mg QD): 3 fold
- cardiovascular toxicities / events related to study drug ([2]; healthy subjects): no cardiovascular toxicities were deemed related to study drug administration; also recorded: none were considered definitively related to GSK2838232
- adverse events ([2]; healthy subjects, all dose regimens, up to 250 mg): few mild adverse events (AEs) with similar frequencies to placebo; also recorded: Few adverse events (AEs) were reported across all dose regimens
- drug‐related AEs ([2]; healthy subjects, four studies): no clearly identified drug‐related AEs
- changes in hematology or clinical chemistry laboratory values, including liver function tests ([2]; healthy subjects, exception one subject with gallstones (not treatment‐related)): no clinically significant changes
- AEs assessed with a reasonable likelihood of being drug‐related ([2]; infrequently reported): headache and dizziness
- safety and tolerability ([2]; single doses up to 250 mg with 100 mg RTV, repeat doses up to 200 mg with 100 mg RTV for 11 days): good safety and tolerability profile
- positive food effect ([3]; capsule formulation discussion): about 1.5 fold
- metabolite detected in human plasma ([3]; co‐administration with RTV): O‐glucuronide
- absorption with food ([3]; fed state (moderate or high fat meal)): delayed and more variable
- increase in AUC with food ([3]; fed versus fasted): ~ 60%
- increase in C max with food ([3]; fed versus fasted): ~ 60%
- half-life ([3]; nonboosted): ~17 h
- half-life ([3]; with RTV): ~34 h
- dose proportionality of AUC and C max ([3]; single doses without RTV, 5‐100 mg (SDD, fasted)): proportional PK; also recorded: proportional to dose; also recorded: proportional pharmacokinetics
